One experiment has as its target T1, MEK1 (Homo sapiens, UniProt Q02750).
T1 construct: purchased Millipore 14-420 (GST-MEK1); 14-703 (Cot1); host or cells: Cot1: insect cells (SF21)
Nature of the experiment: MEK1 activation kinase assay (Cot1/GST-MEK1 HTRF). The class given is biochemical. The following applies: GST-MEK1 substrate, read-out: IC50, inhibition of MEK1 activation. The text has this:
The kinase Cot1 activates MEK1 by phosphorylating its activation loop. The inhibitory activity of compounds of the present invention on this activation of MEK1 was quantified employing the HTRF assay described in the following paragraphs.
N-terminally His6-tagged recombinant kinase domain of the human Cot1 (amino acids 30-397, purchased from Millipore, cat. no 14-703) expressed in insect cells (SF21) and purified by Ni-NTA affinity chromatography was used as kinase. As substrate for the kinase reaction the unactive C-terminally His6-tagged GST-MEK1 fusion protein (Millipore cat. no 14-420) was used.
For the assay 50 nl of a 100fold concentrated solution of the test compound in DMSO was pipetted into a black low volume 384well microtiter plate (Greiner Bio-One, Frickenhausen, Germany), 3 μl of a solution of 24 nM GST-MEK1 and 166.7 μM adenosine-tri-phosphate (ATP) in assay buffer [50 mM Tris/HCl pH 7.5, 10 mM MgCl2, 2 mM dithiothreitol, 0.01% (v/v) Igepal CA 630 (Sigma), 5 mM β-phospho-glycerol] were added and the mixture was incubated for 10 min at 22° C. to allow pre-binding of the test compounds to the GST-MEK1 before the start of the kinase reaction. Then the kinase reaction was started by the addition of 2 μl of a solution of Cot1 in assay buffer and the resulting mixture was incubated for a reaction time of 20 min at 22° C. The concentration of Cot1 in the assay was adjusted depending of the activity of the enzyme lot and was chosen appropriate to have the assay in the linear range, typical enzyme concentrations were in the range of about 2 ng/μl (final conc. in the 5 μl assay volume). The reaction was stopped by the addition of 5 μl of a solution of HTRF detection reagents (13 nM anti GST-XL665 [# 61GSTXLB, Fa. Cis Biointernational, Marcoule, France], 1 nM Eu-cryptate labelled anti-phospho-MEK 1/2 (Ser217/221) [#61P17KAZ, Fa. Cis Biointernational],) in an aqueous EDTA-solution (100 mM EDTA, 500 mM KF, 0.2% (w/v) bovine serum albumin in 100 mM HEPES/NaOH pH 7.5).
The resulting mixture was incubated 2 h at 22° C. to allow the binding of the phosphorylated GST-MEK1 to the anti-GST-XL665 and the Eu-cryptate labelled anti-phospho-MEK 1/2 antibody. Subsequently the amount of Ser217/Ser221-phosphorylated substrate was evaluated by measurement of the resonance energy transfer from the Eu-Cryptate-labelled anti-phospho-MEK antibody to the anti-GST-XL665. Therefore, the fluorescence emissions at 620 nm and 665 nm after excitation at 350 nm was measured in a HTRF reader, e.g. a Rubystar (BMG Labtechnologies, Offenburg, Germany) or a Viewlux (Perkin-Elmer). The ratio of the emissions at 665 nm and at […] was taken as the measure for the amount of phosphorylated substrate. […]

For another experiment, the system named is A375 cells. As to the kind of experiment: A375 proliferation crystal violet (CV) assay. The class given is cell-based. The following applies: Homo sapiens, A-375, 96 h, 4 days, crystal violet staining. The procedure:
Cultivated human A375 cells were plated out in a density of 1500 cells/measurement point in 200 μl of growth medium (DMEM/HAMS F12 (Biochrom; FG4815) with 10% FBS and 2 mM Glutamine) in a 96-well multititer plate. After 24 hours, the cells from a plate (zero plate) were stained with crystal violet (see below), while the medium in the other plates was replaced by fresh culture medium (200 μl) to which the test substances had been added in various concentrations (0 μM, and in the range 0.3 nM -30 μM; the final concentration of the solvent dimethyl sulphoxide was 0.5%). The cells were incubated in the presence of the test substances for 4 days. The cell proliferation was determined by staining the cells with crystal violet: the cells were fixed by adding 20 μl/measurement point of an 11% glutaraldehyde solution at room temperature for 15 min. After the fixed cells had been washed three times with water, the plates were dried at room temperature. […] The dye was dissolved by adding 100 μl/measurement point of a 10% acetic acid solution, and the extinction was determined by photometry at a wavelength of 595 nm. The percentage change in cell growth was calculated by normalizing the measurements to the extinctions of the zero point plate (=0%) and the extinction of the untreated (0 μM) cells (=100%). The IC50 values were determined by means of a 4-parameter fit using the company's own software.

The subject of another experiment is MEK1/2. The following applies: cited from earlier work.
Another experiment has as its system colon cancer. The following applies: oral treatment, mouse models; cited from earlier work.

Molecules are shown by their SMILES. pIC50: −log10 of the molar value. Some results are limits rather than exact numbers.

T1 sequence (Q02750 whole entry): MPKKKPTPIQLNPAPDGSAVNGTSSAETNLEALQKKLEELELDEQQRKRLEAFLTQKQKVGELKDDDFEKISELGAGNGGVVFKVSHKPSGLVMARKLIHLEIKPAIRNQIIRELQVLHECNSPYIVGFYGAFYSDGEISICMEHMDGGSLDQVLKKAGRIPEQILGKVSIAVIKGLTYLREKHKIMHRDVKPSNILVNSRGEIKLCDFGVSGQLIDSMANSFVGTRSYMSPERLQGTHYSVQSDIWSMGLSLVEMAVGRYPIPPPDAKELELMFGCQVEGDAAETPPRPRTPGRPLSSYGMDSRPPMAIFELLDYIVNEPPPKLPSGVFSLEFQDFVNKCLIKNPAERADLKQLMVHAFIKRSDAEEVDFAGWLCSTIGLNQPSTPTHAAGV

Turning to `CCS(=O)(=O)Nc1cccc(Oc2cc(F)cc(Nc3ccc(I)cc3F)c2C(N)=O)c1` [Example Compound 1.1, 2-(3-ethanesulfonylamino-phenoxy)-4-fluoro-6-(2-fluoro-4-iodo-phenylamino)-benzamide], the pIC50 was over 6.52 at MEK1 and over 7.00 in the experiment on A375 cells. Consider `CCS(=O)(=O)Nc1cccc(COc2cc(F)cc(Nc3ccc(I)cc3F)c2C(N)=O)c1` [Example Compound 3.1, 2-(3-ethanesulfonylamino-benzyloxy)-4-fluoro-6-(2-fluoro-4-iodo-phenylamino)-benzamide], for which, at MEK1, the pIC50 is over 6.52.

Regarding `O=C(NOCC1CC1)c1ccc(F)c(F)c1Nc1ccc(I)cc1Cl` [PD184352], in the experiment with MEK1/2, the IC50 entry is “low nanomolar range”. Also, the “colon cancer growth in vivo” value in the experiment on colon cancer is “inhibit colon cancer growth in vivo in mouse models”. Consider `CC(C)S(=O)(=O)Nc1cncc(Oc2cc(F)cc(Nc3ccc(I)cc3F)c2C(N)=O)c1` [Example Compound 2.1, 4-fluoro-2-(2-fluoro-4-iodo-phenylamino)-6-[5-(propane-2-sulfonylamino)-pyridin-3-yloxy]-benzamide], for which, on MEK1, the pIC50 was over 6.52. As for `CC(C)S(=O)(=O)Nc1cccc(Oc2cc(F)cc(Nc3ccc(I)cc3F)c2C(N)=O)c1` [Example Compound 1.2, 4-fluoro-2-(2-fluoro-4-iodo-phenylamino)-6-[3-(propane-2-sulfonylamino)-phenoxy]-benzamide], the negative logarithm of the IC50 (pIC50) on MEK1 was over 6.52; in the experiment with A375 cells, over 7.00.

Source of the values: patent US8993630B2, “Substituted sulphonamido phenoxybenzamides” (Bayer Intellectual Property GmbH, priority 2008, dated 2015).
